# Tests used:
# Assay type in all cases: biochemical, mouse
# [1] = tested on: 1209; test: Hydrolysis of reactant ligands by receptor 12C9 (column head prints 1209); conditions: for hydrolysis by 1209: pH 8.0, receptor/ligand uM, time h: 17 1/10, 2, 18 2/10, 24, 20 2/10, 0.33, 5 1/5, 0.33, 22 5/10, 3.5, preliminary
# Method: (§1) ^1 Preliminary initial hydrolyses shown as the percentage of admixed
# (§2) reactant ligand consumed for catalyzed and spontaneous hydrolyses. "--" =
# (§3) No hydrolysis observed. "NT" = Not tried. All reactions were carried out
# (§4) at pH 8.0 in a 50 mM phosphate buffer unless otherwise noted. Hydrolytic
# (§5) percentages were determined by HPLC using a Hitachi model 655A12 liquid
# (§6) chromatograph with a C18 Vydac 201TP54 column, except as noted below.
# (§7) Mixtures of acetonitrile a nd water containing 0.1 percent trichloroaceti
# (§8) acid [28:72-50:50 (v/v)] were used as elutant. Hydrolyses of Compounds 5
# (§9) and 20 were assayed using fluorescence data.
# (§10) ^2 Concentrations of receptor molecules (Rec.) and reactant ligands
# (§11) (Lig.) in micromolar units, presuming a molecular weight of 150,000
# (§12) daltons for each receptor molecule.
# (§13) ^3 Reactant ligand (Lig.) used as substrate.
# (§14) ^4 Time in hours that the reaction was permitted to take place.
# (§15) ^5 Spontaneous hydrolytic percentages for the time period indicated.
# (§16) ^6 Reaction carried out at pH 7.2 in a 50 mM phosphate buffer.
# [2] = tested on: 37G2; test: Hydrolysis of reactant ligands by receptor 37G2; conditions: for hydrolysis by 37G2: pH 8.0, receptor/ligand uM, time h: 17 1/10, 2, 18 2/10, 24, 20 2/10, 0.33, 5 1/5, 0.33, 22 5/10, 3.5, preliminary
# Method: as §1, §2, §3, §4, §5, §6, §7, §8, §9, §10, §11, §12, §13, §14, §15, §16
# [3] = tested on: 22F5; test: Hydrolysis of reactant ligands by receptor 22F5; conditions: for hydrolysis by 22F5: pH 8.0, receptor/ligand uM, time h: 17 1/10, 2, 18 2/10, 24, 20 2/10, 0.33, 5 1/5, 0.33, 22 5/10, 3.5, preliminary
# Method: as §1, §2, §3, §4, §5, §6, §7, §8, §9, §10, §11, §12, §13, §14, §15, §16
# [4] = tested on: 7E5; test: Hydrolysis of reactant ligands by receptor 7E5; conditions: for hydrolysis by 7E5: pH 8.0, receptor/ligand uM, time h: 17 1/10, 2, 18 2/10, 24, 20 2/10, 0.33, 5 1/5, 0.33, 22 5/10, 3.5, preliminary
# Method: as §1, §2, §3, §4, §5, §6, §7, §8, §9, §10, §11, §12, §13, §14, §15, §16
# [5] = tested on: 13E10; test: Hydrolysis of reactant ligands by receptor 13E10; conditions: for hydrolysis by 13E10: pH 8.0, receptor/ligand uM, time h: 17 1/10, 2, 18 2/10, 24, 20 2/10, 0.33, 5 1/5, 0.33, 22 5/10, 3.5, preliminary
# Method: as §1, §2, §3, §4, §5, §6, §7, §8, §9, §10, §11, §12, §13, §14, §15, §16
# [6] = tested on: 21G2; test: Hydrolysis of reactant ligands by receptor 21G2; conditions: for hydrolysis by 21G2: pH 8.0, receptor/ligand uM, time h: 17 1/10, 2, 18 2/10, 24, 20 2/10, 0.33, 5 1/5, 0.33, 22 5/10, 3.5, preliminary
# Method: as §1, §2, §3, §4, §5, §6, §7, §8, §9, §10, §11, §12, §13, §14, §15, §16
# [7] = tested on: eight monoclonal receptors 21G2, 7E5, 37G2, 13E10, 12C9, 44A2, 17G8 and 22F5; test: Catalyzed hydrolysis of reactant ligands by the eight QPN1 monoclonal receptors, summary; conditions: pH 8.0
# Method: Mice were hyperimmunized with the Compound 13-KLH conjugate over a three to four week time period. Sera were assayed in an ELISA using a Compound 13-BSA conjugate bound to microtiter plate wells as the solid-phase antigen. Cloned hybridomas were also screened using that ELISA assay.
# Each of those catalyses could be inhibited by an appropriate analog-ligand. Thus, a relatively high percentage of induced monoclonal receptors was capable of catalyzing an esterolytic reaction. The reason for this relatively high percentage of useful receptors being induced is unknown, but could be due to the presence of phosphonamidate group nitrogen atom, as compared to a phosphonate oxygen atom, or to the quinoline nucleus of the analog-ligand. Those eight catalytic monoclonal receptors and the hybridomas that secrete them are identified by the laboratory designations "QPN1 7E5", "QPN1 12C9", "QPN1 13E10", "QPN1 17G8", "QPN1 21G2", "QPN1 22F5", "QPN1 37G2" and QPN1 44A2. The prefix "QPNI" is sometimes omitted herein when discussing these hybridomas and receptors.
# Amide cleavage for Compounds 14 and 15 was assayed by analyzing for the production of free aminoquinaldine or aminonaphthalene by measuring the increase in the azo dye that results from derivatizing the free aminoquinaldine or aminonapthalene with a diazotization reagent.
# Catalysis reactions were conducted by preparing a reaction admixture of 100 microliters (ul) total volume containing 5 micromolar (uM) monoclonal antibody, 50-75 uM amide reactant ligand substrate and a buffer described hereinafter. The buffer included in the above admixture varied depending upon the pH utilized as follows: pH 5, 10 […] sodium acetate, 10 mM sodium chloride; pH 7.2, 10 mM sodium phosphate, 0.15 molar (M) sodium chloride; pH 8.0; 50 mM sodium phosphate. The amide-containing substrates screened in this assay were added to the above admixture in 1 ul of a 100-fold concentrated stock solution of dimethyl formamide (DMF). Monoclonal antibody was added to the above admixture from a concentrated stock solution. The resulting admixture was placed into the well of a 96 well flat bottom microtiter plate (Costar, Cambridge, Mass.) and maintained in a moist vapor environment chamber at 23 degrees C. The production of aminoquinaldine or aminonaphthalene was then assayed as described below after 2,3,5, or 6 days.
# The aminoquinaldine or aminonapthalene product produced by the catalyzed reaction was measured by first admixing 20 ul of 5M HCl, 80 ul acetone and 10 ul 0.5% (w/v) sodium nitrite to the reaction admixture to form a second admixture and maintaining that second admixture for 3 minutes at room temperature. Thereafter, 10 ul 2.5% (w/v) ammonium sulfamate was added to form a third admixture that was maintained for 2 minutes at room temperature. A still further 10 ul of 0.5% (w/v) N-(1-napthyl)ethylenediamine dihydrochloride was added to form a fourth admixture that was then maintained for 15 minutes at room temperature. Thereafter the resulting azo dye present in the fourth admixture was measured by absorbance spectroscopy at 540 nanometers (nm) for aminoquinaldine using a Model EL 309 Automated Microplate Reader (Bio-Tek Instruments, Winooski, Vt.).
# [8] = tested on: 17G8; test: Hydrolysis of reactant ligands by receptor 17G8
# Method: as §1, §2, §3, §4, §5, §6, §7, §8, §9, §10, §11, §12, §13, §14, §15, §16
# [9] = pH 7.2, 1 uM receptor, 10 uM ligand, 2 h
hydrolysis by 1209 [1],hydrolysis by 37G2 [2],hydrolysis by 22F5 [3],hydrolysis by 7E5 [4],hydrolysis by 13E10 [5],hydrolysis by 21G2 [6],"hydrolysis by 17G8 ([8]; pH 8.0, receptor/ligand uM, time h: 18 2/10, 24, 20 2/10, 0.33, 5 1/5, 0.33, 22 5/10, 3.5, preliminary)","hydrolysis by 1209, pH 7.2 [1, 9]","hydrolysis by 37G2, pH 7.2 [2, 9]","hydrolysis by 22F5, pH 7.2 [3, 9]","hydrolysis by 7E5, pH 7.2 [4, 9]","hydrolysis by 13E10, pH 7.2 [5, 9]","hydrolysis by 21G2, pH 7.2 [6, 9]","hydrolysis by 17G8, pH 7.2 [8, 9]",SMILES,receptors (of eight) that catalyzed hydrolysis of the compound [7]
11 percentage of reactant ligand,12 percentage of reactant ligand,48 percentage of reactant ligand,8 percentage of reactant ligand,13 percentage of reactant ligand,43 percentage of reactant ligand,16 percentage of reactant ligand,–,–,–,–,–,–,–,O=C(Cc1ccc(NC(=O)C(F)(F)F)cc1)Oc1ccc2ccc(=O)oc2c1 [Compound 5],all of the receptors catalyzed hydrolysis
55 percentage of reactant ligand,60 percentage of reactant ligand,51 percentage of reactant ligand,30 percentage of reactant ligand,32 percentage of reactant ligand,10 percentage of reactant ligand,–,35 percentage of reactant ligand,39 percentage of reactant ligand,16 percentage of reactant ligand,35 percentage of reactant ligand,33 percentage of reactant ligand,10 percentage of reactant ligand,15 percentage of reactant ligand,CC(=O)Nc1ccc(CC(=O)Oc2cccc3ccccc23)cc1 [Compound 17],all of the receptors catalyzed hydrolysis

# Reference: US5126258A (priority 1988, dated 1992)
